The supplement of paper PMC7645387

Assays:
Assay in all cases: growth inhibition relative to DMSO control (fraction); higher = stronger growth inhibition
Conditions in all cases: treatment time: 6 days
HDFB = test system: HDFB
Protocol: (§1)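 Drug combination matrices: GSK-LSD1 (0, 1, 10, 100 nM) was combined with a second epigenetic drug (0 to 10 uM) on MCC lines PeTa and MKL-1 and on HDFB fibroblasts for 6 days, in quadruplicate. Viability was read by CellTiter-Glo 2.0. The response is the fraction of growth inhibition relative to DMSO, as input to synergyfinder Bliss analysis.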

MKL-1 = test system: MKL-1
Protocol: as §1

PeTa = test system: PeTa
Protocol: as §1

c1ccc([C@@H]2C[C@H]2NC2CCNCC2)cc1 [GSK-LSD1] + CN1CCN(c2ccc(-c3cccc(CN4CCOCC4)c3)cc2NC(=O)c2c[nH]c(=O)cc2C(F)(F)F)CC1 [OICR9429]
growth inhibition
Conditions | partner concentration 0 nM | partner concentration 1 nM | partner concentration 10 nM | partner concentration 100 nM | partner concentration 1000 nM | partner concentration 10000 nM
HDFB, GSK-LSD1 concentration 0 nM | – | -0.0114 | 0.00661 | -0.0286 | 0.11 | 0.593
HDFB, GSK-LSD1 concentration 1 nM | 0.0144 | 0.0294 | 0.0019 | 0.0389 | 0.171 | 0.68
HDFB, GSK-LSD1 concentration 10 nM | 0.091 | 0.0858 | 0.0542 | 0.0911 | 0.22 | 0.651
HDFB, GSK-LSD1 concentration 100 nM | 0.149 | 0.113 | 0.145 | 0.139 | 0.282 | 0.676
MKL-1, GSK-LSD1 concentration 0 nM | – | -0.0407 | -0.0602 | -0.0599 | -0.0444 | -0.00949
MKL-1, GSK-LSD1 concentration 1 nM | 0.0584 | 0.0967 | 0.0719 | 0.0573 | 0.0606 | 0.0783
MKL-1, GSK-LSD1 concentration 10 nM | 0.357 | 0.381 | 0.381 | 0.355 | 0.398 | 0.438
MKL-1, GSK-LSD1 concentration 100 nM | 0.717 | 0.695 | 0.709 | 0.735 | 0.775 | 0.797
PeTa, GSK-LSD1 concentration 0 nM | – | -0.0155 | -0.0439 | -0.00944 | 0.0255 | 0.143
PeTa, GSK-LSD1 concentration 1 nM | -0.0127 | -0.0233 | -0.0546 | -0.0748 | 0.0274 | 0.0895
PeTa, GSK-LSD1 concentration 10 nM | 0.451 | 0.456 | 0.365 | 0.381 | 0.437 | 0.509
PeTa, GSK-LSD1 concentration 100 nM | 0.808 | 0.808 | 0.787 | 0.806 | 0.827 | 0.863

c1ccc([C@@H]2C[C@H]2NC2CCNCC2)cc1 [GSK-LSD1] + Nc1ccccc1NC(=O)c1ccc(CNC(=O)OCc2cccnc2)cc1 [Entinostat]
growth inhibition
Conditions | partner concentration 0 nM | partner concentration 1 nM | partner concentration 10 nM | partner concentration 100 nM | partner concentration 1000 nM | partner concentration 10000 nM
HDFB, GSK-LSD1 concentration 0 nM | – | 0.0329 | 0.154 | 0.451 | 0.823 | 0.933
HDFB, GSK-LSD1 concentration 1 nM | 0.0914 | 0.124 | 0.111 | 0.467 | 0.822 | 0.944
HDFB, GSK-LSD1 concentration 10 nM | 0.24 | 0.233 | 0.246 | 0.421 | 0.81 | 0.947
HDFB, GSK-LSD1 concentration 100 nM | 0.259 | 0.26 | 0.254 | 0.473 | 0.798 | 0.949
MKL-1, GSK-LSD1 concentration 0 nM | – | 0.0232 | 0.092 | 0.981 | 1 | 1
MKL-1, GSK-LSD1 concentration 1 nM | 0.121 | 0.169 | 0.164 | 0.956 | 1 | 1
MKL-1, GSK-LSD1 concentration 10 nM | 0.421 | 0.48 | 0.441 | 0.961 | 1 | 1
MKL-1, GSK-LSD1 concentration 100 nM | 0.761 | 0.745 | 0.649 | 0.958 | 1 | 1
PeTa, GSK-LSD1 concentration 0 nM | – | -0.000953 | 0.132 | 0.963 | 1 | 1
PeTa, GSK-LSD1 concentration 1 nM | 0.0344 | 0.0611 | 0.145 | 0.975 | 1 | 1
PeTa, GSK-LSD1 concentration 10 nM | 0.459 | 0.465 | 0.561 | 0.998 | 1 | 1
PeTa, GSK-LSD1 concentration 100 nM | 0.787 | 0.776 | 0.761 | 0.974 | 1 | 1

c1ccc([C@@H]2C[C@H]2NC2CCNCC2)cc1 [GSK-LSD1] + Cc1sc2c(c1C)C(c1ccc(Cl)cc1)=N[C@@H](CC(=O)OC(C)(C)C)c1nnc(C)n1-2 [(+)-JQ1]
growth inhibition
Conditions | partner concentration 0 nM | partner concentration 1 nM | partner concentration 10 nM | partner concentration 100 nM | partner concentration 1000 nM | partner concentration 10000 nM
HDFB, GSK-LSD1 concentration 0 nM | – | -0.0405 | -0.0664 | 0.475 | 0.743 | 0.784
HDFB, GSK-LSD1 concentration 1 nM | 0.0649 | 0.0389 | 0.0119 | 0.469 | 0.75 | 0.796
HDFB, GSK-LSD1 concentration 10 nM | 0.0598 | 0.0402 | 0.0248 | 0.531 | 0.761 | 0.792
HDFB, GSK-LSD1 concentration 100 nM | 0.0941 | 0.0548 | 0.115 | 0.607 | 0.773 | 0.817
MKL-1, GSK-LSD1 concentration 0 nM | – | -0.032 | -0.0639 | 0.818 | 0.994 | 0.997
MKL-1, GSK-LSD1 concentration 1 nM | 0.00341 | -0.0162 | -0.0305 | 0.799 | 0.994 | 0.998
MKL-1, GSK-LSD1 concentration 10 nM | 0.349 | 0.33 | 0.364 | 0.849 | 0.999 | 1
MKL-1, GSK-LSD1 concentration 100 nM | 0.792 | 0.766 | 0.766 | 0.917 | 0.999 | 1
PeTa, GSK-LSD1 concentration 0 nM | – | -0.0721 | -0.114 | 0.804 | 0.95 | 0.976
PeTa, GSK-LSD1 concentration 1 nM | -0.00975 | -0.0422 | -0.106 | 0.67 | 0.945 | 0.968
PeTa, GSK-LSD1 concentration 10 nM | 0.536 | 0.522 | 0.489 | 0.848 | 0.975 | 0.995
PeTa, GSK-LSD1 concentration 100 nM | 0.819 | 0.765 | 0.749 | 0.925 | 0.995 | 0.998

c1ccc([C@@H]2C[C@H]2NC2CCNCC2)cc1 [GSK-LSD1] + O=C(NC[C@H](O)CN1CCc2ccccc2C1)c1ccnc(NC2CCC2)c1 [GSK591]
growth inhibition
Conditions | partner concentration 0 nM | partner concentration 1 nM | partner concentration 10 nM | partner concentration 100 nM | partner concentration 1000 nM | partner concentration 10000 nM
HDFB, GSK-LSD1 concentration 0 nM | – | -0.0108 | 0.034 | 0.242 | 0.285 | 0.348
HDFB, GSK-LSD1 concentration 1 nM | -0.00486 | 0.0263 | 0.00718 | 0.199 | 0.324 | 0.372
HDFB, GSK-LSD1 concentration 10 nM | 0.0391 | 0.0408 | 0.0239 | 0.215 | 0.342 | 0.42
HDFB, GSK-LSD1 concentration 100 nM | 0.0873 | 0.0906 | 0.093 | 0.285 | 0.355 | 0.44
MKL-1, GSK-LSD1 concentration 0 nM | – | 0.00697 | 0.0188 | 0.133 | 0.269 | 0.324
MKL-1, GSK-LSD1 concentration 1 nM | 0.144 | 0.148 | 0.163 | 0.253 | 0.423 | 0.432
MKL-1, GSK-LSD1 concentration 10 nM | 0.46 | 0.501 | 0.536 | 0.626 | 0.773 | 0.789
MKL-1, GSK-LSD1 concentration 100 nM | 0.733 | 0.769 | 0.754 | 0.771 | 0.894 | 0.849
PeTa, GSK-LSD1 concentration 0 nM | – | -0.0144 | -0.0251 | 0.0642 | 0.125 | 0.21
PeTa, GSK-LSD1 concentration 1 nM | 0.11 | 0.135 | 0.102 | 0.201 | 0.287 | 0.302
PeTa, GSK-LSD1 concentration 10 nM | 0.615 | 0.624 | 0.611 | 0.64 | 0.731 | 0.679
PeTa, GSK-LSD1 concentration 100 nM | 0.761 | 0.746 | 0.73 | 0.779 | 0.866 | 0.797

c1ccc([C@@H]2C[C@H]2NC2CCNCC2)cc1 [GSK-LSD1] + Cc1cc2c(cc1N1C(=O)c3cccc4c(CCCO)ccc(c34)C1=O)n(C)c(=O)n2C [BAY299]
growth inhibition
Conditions | partner concentration 0 nM | partner concentration 1 nM | partner concentration 10 nM | partner concentration 100 nM | partner concentration 1000 nM | partner concentration 10000 nM
HDFB, GSK-LSD1 concentration 0 nM | – | -0.0107 | -0.0132 | 0.0763 | 0.607 | 0.697
HDFB, GSK-LSD1 concentration 1 nM | -0.0232 | -0.0193 | 0.0121 | 0.0867 | 0.635 | 0.702
HDFB, GSK-LSD1 concentration 10 nM | 0.076 | 0.0719 | 0.0472 | 0.207 | 0.674 | 0.727
HDFB, GSK-LSD1 concentration 100 nM | 0.0758 | 0.0715 | 0.0856 | 0.201 | 0.695 | 0.713
MKL-1, GSK-LSD1 concentration 0 nM | – | 0.0343 | -0.000673 | 0.0416 | 0.844 | 0.999
MKL-1, GSK-LSD1 concentration 1 nM | 0.104 | 0.0952 | 0.0872 | 0.0914 | 0.936 | 0.999
MKL-1, GSK-LSD1 concentration 10 nM | 0.516 | 0.425 | 0.457 | 0.475 | 0.972 | 1
MKL-1, GSK-LSD1 concentration 100 nM | 0.753 | 0.738 | 0.69 | 0.722 | 0.981 | 1
PeTa, GSK-LSD1 concentration 0 nM | – | -0.0148 | -0.062 | 0.00688 | 0.806 | 0.998
PeTa, GSK-LSD1 concentration 1 nM | -0.0592 | -0.0708 | -0.0758 | 0.0174 | 0.764 | 0.997
PeTa, GSK-LSD1 concentration 10 nM | 0.258 | 0.223 | 0.194 | 0.304 | 0.836 | 0.999
PeTa, GSK-LSD1 concentration 100 nM | 0.749 | 0.743 | 0.723 | 0.736 | 0.989 | 0.999
